# Results: ChEMBL document CHEMBL5233223, “Dammarane-type leads panaxadiol and protopanaxadiol for drug discovery: Biological activity and structural modification” (Eur J Med Chem, 2020)
# Tests used:
# [1] = test system: HCT-116; experiment: Induction of apoptosis in human HCT-116 cells at 20 uM in presence of EGCG at 20 uM relative to control; assay type: functional
# [2] = test system: HCT-116; experiment: Antiproliferative activity against human HCT-116 cells assessed as cell growth inhibition; assay type: functional, cell-based
# [3] = test system: HCT-116; experiment: Induction of apoptosis in human HCT-116 cells at 10 uM relative to control; assay type: functional
# [4] = test system: HCT-116; experiment: Induction of apoptosis in human HCT-116 cells at 10 uM in presence of EGCG at 20 uM relative to control; assay type: functional
# [5] = test system: HCT-116; experiment: Induction of apoptosis in human HCT-116 cells at 10 uM in presence of EGCG at 30 uM relative to control; assay type: functional
# [6] = test system: HCT-116; experiment: Induction of apoptosis in human HCT-116 cells at 20 uM relative to control; assay type: functional
# [7] = test system: HCT-116; experiment: Antiproliferative activity against human HCT-116 cells assessed as cell growth inhibition in presence of irinotecan; assay type: functional, cell-based
# [8] = test system: HCT-116; experiment: Induction of apoptosis in human HCT-116 cells at 20 uM in presence of EGCG at 10 uM relative to control; assay type: functional
# [9] = test system: SW480; experiment: Antiproliferative activity against human SW480 cells assessed as cell growth inhibition in presence of irinotecan; assay type: functional, cell-based
# [10] = test system: SW480; experiment: Antiproliferative activity against human SW480 cells assessed as cell growth inhibition; assay type: functional, cell-based
# [11] = test system: HCT-116; experiment: Induction of apoptosis in human HCT-116 cells at 20 uM in presence of EGCG at 30 uM relative to control; assay type: functional
# [12] = test system: HCT-116; experiment: Induction of apoptosis in human HCT-116 cells at 10 uM in presence of EGCG at 10 uM relative to control; assay type: functional
# [13] = test system: HCT-116; experiment: Antiproliferative activity against human HCT-116 cells at 30 uM incubated for 48 hrs by MTS assay relative to control; assay type: functional
# [14] = test system: HCT-116; experiment: Antiproliferative activity against human HCT-116 cells at 20 uM incubated for 48 hrs by MTS assay relative to control; assay type: functional
# [15] = test system: HCT-116; experiment: Induction of apoptosis in human HCT-116 cells at 30 uM in presence of PPD by annexin V-FITC/propidium iodide staining based flow cytometry analysis relative to control; assay type: functional
# [16] = test system: HCT-116; experiment: Induction of apoptosis in human HCT-116 cells at 30 uM by annexin V-FITC/propidium iodide staining based flow cytometry analysis relative to control; assay type: functional
# [17] = test system: HCT-116; experiment: Antiproliferative activity against human HCT-116 cells at 20 uM incubated for 48 hrs in presence of PPD by MTS assay relative to control; assay type: functional
# [18] = test system: HCT-116; experiment: Antiproliferative activity against human HCT-116 cells at 10 uM incubated for 48 hrs by MTS assay relative to control; assay type: functional
# [19] = test system: HCT-116; experiment: Antiproliferative activity against human HCT-116 cells at 10 uM incubated for 48 hrs in presence of PPD by MTS assay relative to control; assay type: functional
# [20] = test system: HCT-116; experiment: Antiproliferative activity against human HCT-116 cells at 30 uM incubated for 48 hrs in presence of PPD by MTS assay relative to control; assay type: functional
# [21] = test system: HCT-116; experiment: Antiproliferative activity against human HCT-116 cells assessed as cell growth inhibition at 200 uM relative to control; assay type: functional; design: scale not given: the % may be the effect or the level left
# [22] = test system: HCT-116; experiment: Induction of apoptosis in human HCT-116 cells at 250 uM relative to control; assay type: functional
# [23] = test system: Hepatitis B virus; experiment: Antiviral activity against Hepatitis B virus infected in human HepG2.2.15 cells assessed as inhibition of HBsAg level by MTT assay; assay type: functional, organism-based; conditions: HepG2 2.2.15
# [24] = test system: HepG2 2.2.15; experiment: Antiproliferative activity against human HepG2.2.15 cells assessed as cell growth inhibition; assay type: functional, cell-based
# [25] = test system: Hepatitis B virus; experiment: Antiviral activity against Hepatitis B virus infected in human HepG2.2.15 cells assessed as inhibition of viral DNA replication by MTT assay; assay type: functional, organism-based; conditions: HepG2 2.2.15
# [26] = test system: Hepatitis B virus; experiment: Antiviral activity against Hepatitis B virus infected in human HepG2.2.15 cells assessed as inhibition of HBeAg level by MTT assay; assay type: functional, organism-based; conditions: HepG2 2.2.15
# [27] = test system: HCT-116; experiment: Induction of apoptosis in human HCT-116 cells at 20 uM in presence of epicatechin at 250 uM relative to control; assay type: functional
# [28] = test system: HCT-116; experiment: Antiproliferative activity against human HCT-116 cells assessed as cell growth inhibition at 20 uM in presence of epicatechin at 150 uM relative to control; assay type: functional; design: scale not given: the % may be the effect or the level left
# [29] = test system: HCT-116; experiment: Antiproliferative activity against human HCT-116 cells assessed as cell growth inhibition at 20 uM in presence of epicatechin at 250 uM relative to control; assay type: functional; design: scale not given: the % may be the effect or the level left
# [30] = test system: HCT-116; experiment: Antiproliferative activity against human HCT-116 cells assessed as cell growth inhibition at 20 uM relative to control; assay type: functional; design: scale not given: the % may be the effect or the level left
# [31] = test system: HCT-116; experiment: Induction of apoptosis in human HCT-116 cells at 20 uM in presence of epicatechin at 200 uM relative to control; assay type: functional
# [32] = test system: SK-HEP1; experiment: Antiproliferative activity against human SK-HEP1 cells assessed as cell growth inhibition measured after 24 hrs by [3H]thymidine incorporation assay; assay type: functional, cell-based
# [33] = test system: HCT-116; experiment: Induction of apoptosis in human HCT-116 cells at 20 uM in presence of epicatechin at 150 uM relative to control; assay type: functional
# [34] = test system: HCT-116; experiment: Antiproliferative activity against human HCT-116 cells assessed as cell growth inhibition at 20 uM in presence of epicatechin at 200 uM relative to control; assay type: functional; design: scale not given: the % may be the effect or the level left
# [35] = test system: HCT-116; experiment: Induction of apoptosis in human HCT-116 cells at 20 uM at 20 uM relative to control; assay type: functional
# [36] = test system: HeLa; experiment: Antiproliferative activity against human HeLa cells assessed as cell growth inhibition measured after 24 hrs by [3H]thymidine incorporation assay; assay type: functional, cell-based
# [37] = test system: Mus musculus; experiment: In vivo radioprotective activity in gamma-irradiated ICR mouse assessed as inhibition of radiation-induced apoptosis frequency relative to control; assay type: functional; design: scale not given: the % may be the effect or the level left
# [38] = test system: SW480; experiment: Antiproliferative activity against human SW480 cells assessed as cell growth inhibition by crystal violet staining based assay; assay type: functional
# [39] = test system: SF-188; experiment: Antiproliferative activity against human SF-188 cells assessed as inhibition of cell proliferation; assay type: functional, cell-based
# [40] = molecular target: Stromelysin-1 (Homo sapiens) (UniProt P08254); experiment: Inhibition of MMP-3 (unknown origin) at 10 uM
# [41] = test system: LNCaP C4-2; experiment: Antiproliferative activity against human LNCaP C4-2 cells assessed as cell growth inhibition in presence of calcitriol; assay type: functional, cell-based
# [42] = Antiproliferative activity against human Ectopic endometrial stromal cell assessed as cell growth inhibition; assay type: functional, cell-based
# [43] = test system: RS4-11; experiment: Antiproliferative activity against human RS4-11 cells assessed as cell growth inhibition; assay type: functional, cell-based
# [44] = molecular target: Estrogen receptor (Homo sapiens, UniProt P03372); experiment: Displacement of [3H]-17beta-estradiol to estrogen receptor (unknown origin)
# [45] = molecular target: Stromelysin-1 (Homo sapiens) (UniProt P08254); experiment: Inhibition of MMP-3 (unknown origin) at 5 uM
# [46] = test system: LNCaP; experiment: Antiproliferative activity against human LNCAP cells assessed as cell growth inhibition; assay type: functional, cell-based
# [47] = test system: Ishikawa; experiment: Induction of autophagy in human Ishikawa cells assessed as ratio of LC3bII/LC3bI levels; assay type: functional
# [48] = test system: LNCaP C4-2; experiment: Antiproliferative activity against human LNCaP C4-2 cells assessed as cell growth inhibition; assay type: functional, cell-based
# [49] = Antiproliferative activity against human U-87 MG cells assessed as inhibition of cell proliferation; assay type: functional, cell-based, U-87MG ATCC
# [50] = Cytotoxicity against human PBMC assessed as cell growth inhibition; assay type: toxicity, cell-based; conditions: PBMC (peripheral blood mononuclear cells)
# [51] = test system: RL95-2; experiment: Induction of autophagy in human RL95-2 cells assessed as ratio of LC3bII/LC3bI levels; assay type: functional
# [52] = test system: REH; experiment: Antiproliferative activity against human REH cells assessed as cell growth inhibition; assay type: functional, cell-based
# [53] = test system: LNCaP; experiment: Antiproliferative activity against human LNCAP cells assessed as cell growth inhibition in presence of calcitriol; assay type: functional, cell-based
# [54] = test system: HT-1080; experiment: Antiproliferative activity against human HT-1080 cells assessed as inhibition of cell proliferation; assay type: functional, cell-based
# [55] = test system: HCT-116; experiment: Antiproliferative activity against human HCT-116 cells assessed as cell growth inhibition by crystal violet staining based assay; assay type: functional
# [56] = test system: HCT-116; experiment: Antiproliferative activity against human HCT-116 cells assessed as cell growth inhibition by crystal violet staining based assay relative to control; assay type: functional; design: scale not given: the % may be the effect or the level left
# [57] = test system: HL-60; experiment: Antiproliferative activity against human HL-60 cells assessed as cell growth inhibition; assay type: functional, cell-based
# [58] = test system: A549; experiment: Antiproliferative activity against human A549 cells assessed as cell growth inhibition; assay type: functional, cell-based
# [59] = test system: HepG2; experiment: Antiproliferative activity against human HepG2 cells assessed as cell growth inhibition; assay type: functional, cell-based
# Sequence of Stromelysin-1 (Homo sapiens) (P08254 100-477 limits assumed): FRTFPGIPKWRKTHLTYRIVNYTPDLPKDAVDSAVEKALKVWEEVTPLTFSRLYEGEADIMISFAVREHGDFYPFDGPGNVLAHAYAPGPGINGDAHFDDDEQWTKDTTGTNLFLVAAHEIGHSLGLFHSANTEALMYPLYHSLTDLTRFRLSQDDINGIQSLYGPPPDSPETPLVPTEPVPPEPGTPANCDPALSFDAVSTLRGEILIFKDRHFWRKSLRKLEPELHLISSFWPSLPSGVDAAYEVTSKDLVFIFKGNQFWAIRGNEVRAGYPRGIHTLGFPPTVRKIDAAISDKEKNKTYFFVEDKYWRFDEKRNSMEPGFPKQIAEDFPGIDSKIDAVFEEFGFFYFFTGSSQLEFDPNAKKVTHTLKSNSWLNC
# Sequence of Estrogen receptor (P03372 whole entry): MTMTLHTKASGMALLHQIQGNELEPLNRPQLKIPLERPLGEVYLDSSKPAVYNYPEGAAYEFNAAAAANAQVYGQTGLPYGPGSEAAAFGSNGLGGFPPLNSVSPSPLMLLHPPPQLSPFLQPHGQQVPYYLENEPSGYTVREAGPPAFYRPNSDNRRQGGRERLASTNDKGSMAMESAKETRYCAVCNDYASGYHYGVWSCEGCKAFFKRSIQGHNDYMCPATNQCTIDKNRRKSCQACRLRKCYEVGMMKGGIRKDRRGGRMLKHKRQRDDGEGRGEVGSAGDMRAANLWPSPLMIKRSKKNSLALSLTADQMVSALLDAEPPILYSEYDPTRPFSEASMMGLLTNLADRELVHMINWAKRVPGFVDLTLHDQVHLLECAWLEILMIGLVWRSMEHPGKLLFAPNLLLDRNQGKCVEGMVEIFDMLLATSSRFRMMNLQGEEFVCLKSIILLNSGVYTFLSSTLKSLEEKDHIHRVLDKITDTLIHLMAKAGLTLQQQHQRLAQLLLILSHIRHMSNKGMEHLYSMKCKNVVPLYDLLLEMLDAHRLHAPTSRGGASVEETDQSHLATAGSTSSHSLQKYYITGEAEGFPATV
smiles,measurement,setting,value
CC1(C)CCC[C@@](C)(C2CC[C@]3(C)C2[C@H](O)CC2[C@@]4(C)CC[C@H](O)C(C)(C)C4CC[C@]23C)O1 (some centres undefined),Activity,[1],40.7%
same,IC50,[2],12.1 µM
same,Activity,[3],5.7%
same,Activity,[4],30.2%
same,Activity,[5],35.2%
same,Activity,[6],19%
same,IC50,[7],11.8 µM
same,Activity,[8],27.8%
same,IC50,[9],4.4 µM
same,IC50,[10],5 µM
same,Activity,[11],48%
same,Activity,[12],14.1%
O=c1[nH]cc(F)c(=O)[nH]1 [FLUOROURACIL],Activity,[13],30.1%
same,Activity,[14],20.2%
same,Activity,[15],28.8%
same,Activity,[16],5%
same,Activity,[17],27.4%
same,Activity,[18],5.7%
same,Activity,[19],13.8%
same,Activity,[20],49.4%
Oc1cc(O)c2c(c1)O[C@H](c1ccc(O)c(O)c1)[C@H](O)C2 [(-)-EPICATECHIN],Activity,[21],17%
same,Activity,[22],9.4%
CC1(C)CCC[C@](C)(C2CC[C@]3(C)C2[C@H](O)CC2[C@@]4(C)CC[C@H](OC(=O)c5cccs5)C(C)(C)C4CC[C@]23C)O1 (some centres undefined),IC50,[23],30.8 µM
same,IC50,[24],7.27 µM
same,IC50,[25],16.5 µM
same,IC50,[26],18.2 µM
CC1(C)CCC[C@](C)(C2CC[C@]3(C)C2[C@H](O)CC2[C@@]4(C)CC[C@H](O)C(C)(C)C4CC[C@]23C)O1 (some centres undefined),Activity,[27],25.8%
same,Activity,[28],50.7%
same,Activity,[29],94.7%
same,Activity,[30],28.7%
same,Activity,[31],16.6%
same,IC50,[32],0.8 µM
same,Activity,[33],11.9%
same,Activity,[34],97.2%
same,Activity,[35],7.2%
same,IC50,[36],1.2 µM
same,Activity,[37],29.5%
CC(C)=CCC[C@](C)(O)C1CC[C@]2(C)C1[C@H](O)CC1[C@@]3(C)CC[C@H](O)C(C)(C)C3CC[C@]12C (some centres undefined),IC50,[38],8.99 µM
same,IC50,[39],24 µM
same,inhibition,[40],68.6%
same,IC50,[41],23 µM
same,IC50,[42],30.6 µM
same,IC50,[43],27.2 µM
same,IC50,[44],26.3 µM
same,inhibition,[45],40.3%
same,IC50,[46],41 µM
same,Ratio,[47],0.91
same,IC50,[48],13 µM
same,IC50,[49],38 µM
same,IC50,[50],116 µM
same,Ratio,[51],1.93
same,IC50,[52],24.4 µM
same,IC50,[53],53 µM
same,IC50,[54],76.8 µM
same,IC50,[55],4.69 µM
same,Activity,[56],<30%
CCCCCCC/C=C\CCCCCCCC(=O)O[C@H]1CC[C@@]2(C)C(CC[C@]3(C)C2C[C@@H](O)C2C([C@@](C)(O)CCC=C(C)C)CC[C@]23C)C1(C)C (some centres undefined),IC50,[57],11.6 µM
same,IC50,[58],29.7 µM
same,IC50,[59],9.2 µM
